Data reported in ChEMBL document CHEMBL1154627, “Structure-activity relationship studies of targeting ligands against breast cancer cells” (J Med Chem, 2009).
pIC50: −log10 of the molar value. The source made the active and inactive calls. The rule behind the calls is not given here. Where a SMILES comes first, the peptide text is derived from it. Bridges are numbered along the chain shown (N, C = ends). [ ]: non-standard residue; d: D form. Tyr(3-NO2) = N[C@@H](Cc1ccc(O)c([N+](=O)[O-])c1)C(=O)O; Hyp = O=C(O)[C@@H]1C[C@@H](O)CN1

Columns and labels:
[1] = target: T1, Integrin alpha-3 (Homo sapiens) (UniProt P26006); assay: Binding affinity to alpha3 integrin receptor in human MDA-MB-231 cells by fluorescent microscopy; format: cell-based
T1 sequence (whole entry): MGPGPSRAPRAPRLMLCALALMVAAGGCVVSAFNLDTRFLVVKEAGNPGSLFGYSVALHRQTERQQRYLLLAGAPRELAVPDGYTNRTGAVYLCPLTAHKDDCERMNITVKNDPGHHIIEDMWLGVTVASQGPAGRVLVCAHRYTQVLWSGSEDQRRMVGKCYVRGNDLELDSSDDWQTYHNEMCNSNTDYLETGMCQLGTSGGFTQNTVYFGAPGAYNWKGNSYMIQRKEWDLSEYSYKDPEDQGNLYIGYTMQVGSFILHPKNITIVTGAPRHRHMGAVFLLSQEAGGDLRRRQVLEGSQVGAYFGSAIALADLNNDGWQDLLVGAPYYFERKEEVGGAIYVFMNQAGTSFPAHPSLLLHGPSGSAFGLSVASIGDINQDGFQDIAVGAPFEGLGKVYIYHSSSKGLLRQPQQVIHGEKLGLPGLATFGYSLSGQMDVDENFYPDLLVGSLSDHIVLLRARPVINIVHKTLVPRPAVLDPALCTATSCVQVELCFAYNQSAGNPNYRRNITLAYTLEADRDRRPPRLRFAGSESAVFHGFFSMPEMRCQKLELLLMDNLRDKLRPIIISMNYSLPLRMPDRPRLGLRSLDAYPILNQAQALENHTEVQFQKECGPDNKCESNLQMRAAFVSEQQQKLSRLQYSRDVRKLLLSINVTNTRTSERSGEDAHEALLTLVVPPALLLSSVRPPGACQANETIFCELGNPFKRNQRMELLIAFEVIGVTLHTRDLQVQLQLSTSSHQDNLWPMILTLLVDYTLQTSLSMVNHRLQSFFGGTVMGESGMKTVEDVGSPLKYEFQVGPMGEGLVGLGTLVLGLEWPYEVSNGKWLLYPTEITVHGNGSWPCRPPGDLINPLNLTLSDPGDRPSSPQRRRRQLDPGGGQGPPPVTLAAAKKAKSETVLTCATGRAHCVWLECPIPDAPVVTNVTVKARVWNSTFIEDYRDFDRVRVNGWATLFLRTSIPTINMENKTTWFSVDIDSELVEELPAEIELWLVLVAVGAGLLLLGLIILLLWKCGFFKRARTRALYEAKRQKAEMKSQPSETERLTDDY

Mus musculus [2] = assay: In vivo binding affinity to alpha3 integrin receptor in human MDA-MB-231 cells xenografted in iv dosed athymic nude mouse nu/nu by fluorescent imaging; format: functional, organism-based
[3] = Binding affinity to alpha3beta1 integrin receptor in human MDA-MB-231 cells assessed as inhibition of cell binding to immobilized LXY1 peptide by cell adherence assay; format: cell-based
Mus musculus [4] = assay: Ex vivo binding affinity to alpha3 integrin receptor in human MDA-MB-231 cells xenografted in iv dosed athymic nude mouse nu/nu by fluorescent imaging; format: functional, organism-based

SMILES	pIC50 [3]	further results
NC(=O)C[C@@H]1NC(=O)[C@@H]2C[C@@H](O)CN2C(=O)CNC(=O)[C@H](c2cc(F)cc(F)c2)NC(=O)CNC(=O)[C@@H](CC(=O)O)NC(=O)[C@H](N)CSSC[C@H](C(N)=O)NC1=O	5.68	Activity [1]: Active; Activity (Mus musculus [2]): Active; Activity (Mus musculus [4]): Active
N#Cc1cccc([C@@H]2NC(=O)CNC(=O)[C@@H](CC(=O)O)NC(=O)[C@H](N)CSSC[C@H](C(N)=O)NC(=O)[C@H](CC(N)=O)NC(=O)[C@@H]3C[C@@H](O)CN3C(=O)CNC2=O)c1	< 4.60	–
NC(=O)C[C@@H]1NC(=O)[C@@H]2C[C@@H](O)CN2C(=O)CNC(=O)[C@H](CCc2ccc(O)cc2)NC(=O)CNC(=O)[C@@H](CC(=O)O)NC(=O)[C@H](N)CSSC[C@H](C(N)=O)NC1=O	< 4.60	–
NC(=O)C[C@@H]1NC(=O)[C@@H]2C[C@@H](O)CN2C(=O)CNC(=O)[C@H](Cc2ccc(O)c([N+](=O)[O-])c2)NC(=O)CNC(=O)[C@@H](CC(=O)O)NC(=O)[C@H](NC(=O)Nc2ccc([N+](=O)[O-])cc2)CSSC[C@H](C(N)=O)NC1=O	< 4.60	–
NC(=O)C[C@@H]1NC(=O)[C@@H]2C[C@@H](O)CN2C(=O)CNC(=O)[C@H](Cc2ccc(O)c(N)c2)NC(=O)CNC(=O)[C@@H](CC(=O)O)NC(=O)[C@H](N)CSSC[C@H](C(N)=O)NC1=O	< 4.60	–
NC(=O)C[C@@H]1NC(=O)[C@@H]2C[C@@H](O)CN2C(=O)CNC(=O)[C@H](c2cccc([N+](=O)[O-])c2)NC(=O)CNC(=O)[C@@H](CC(=O)O)NC(=O)[C@H](N)CSSC[C@H](C(N)=O)NC1=O	5.51	–
NC(=O)C[C@@H]1NC(=O)[C@@H]2C[C@@H](O)CN2C(=O)CNC(=O)[C@H](c2ccc(F)cc2)NC(=O)CNC(=O)[C@@H](CC(=O)O)NC(=O)[C@H](N)CSSC[C@H](C(N)=O)NC1=O	4.63	–
NC(=O)C[C@@H]1NC(=O)[C@@H]2C[C@@H](O)CN2C(=O)CNC(=O)[C@H](Cc2ccc(O)c([N+](=O)[O-])c2)NC(=O)CNC(=O)[C@@H](CC(=O)O)NC(=O)[C@H](NCc2ccc(-c3ccccc3)cc2)CSSC[C@H](C(N)=O)NC1=O	< 4.60	–
NC(=O)C[C@@H]1NC(=O)[C@@H]2C[C@@H](O)CN2C(=O)CNC(=O)[C@H](Cc2ccc(O)c([N+](=O)[O-])c2)NC(=O)CNC(=O)[C@@H](CC(=O)O)NC(=O)[C@H](N)CNC(=O)C[C@H](C(N)=O)NC1=O	< 4.60	–
CCCCCCN(CCCCCC)[C@@H]1CSSC[C@H](C(N)=O)NC(=O)[C@H](CC(N)=O)NC(=O)[C@@H]2C[C@@H](O)CN2C(=O)CNC(=O)[C@H](Cc2ccc(O)c([N+](=O)[O-])c2)NC(=O)CNC(=O)[C@@H](CC(=O)O)NC1=O	< 4.60	–
CC1(C)SSC(C)(C)[C@H](C(N)=O)NC(=O)[C@H](CC(N)=O)NC(=O)[C@@H]2C[C@@H](O)CN2C(=O)CNC(=O)[C@H](Cc2ccc(O)c([N+](=O)[O-])c2)NC(=O)CNC(=O)[C@@H](CC(=O)O)NC(=O)[C@@H]1N	< 4.60	–
NC(=O)C[C@@H]1NC(=O)[C@@H]2C[C@@H](O)CN2C(=O)CNC(=O)[C@H](Cc2ccc(O)c(I)c2)NC(=O)CNC(=O)[C@@H](CC(=O)O)NC(=O)[C@H](N)CSSC[C@H](C(N)=O)NC1=O	< 4.60	–
NC(=O)C[C@@H]1NC(=O)[C@@H]2C[C@@H](O)CN2C(=O)CNC(=O)[C@H](Cc2ccc(O)c([N+](=O)[O-])c2)NC(=O)CNC(=O)[C@@H](CC(=O)O)NC(=O)[C@@H](N)CCCCNC1=O	< 4.60	–
NC(=O)C[C@@H]1NC(=O)[C@@H]2C[C@@H](O)CN2C(=O)CNC(=O)[C@H](Cc2cc(I)c(O)c(I)c2)NC(=O)CNC(=O)[C@@H](CC(=O)O)NC(=O)[C@H](N)CSSC[C@H](C(N)=O)NC1=O	< 4.60	–
NC(=O)C[C@@H]1NC(=O)[C@@H]2C[C@@H](O)CN2C(=O)CNC(=O)[C@H](Cc2ccc(O)c([N+](=O)[O-])c2)NC(=O)CNC(=O)[C@@H](CC(=O)O)NC(=O)[C@H](N)CSSC[C@H](C(N)=O)NC1=O (H-[dC][dD]G[Tyr(3-NO2)]G[Hyp]N[dC]-NH2; disulfide 1-8)	5.13	–
NC(=O)C[C@@H]1NC(=O)[C@@H]2C[C@@H](O)CN2C(=O)CNC(=O)[C@H](c2ccccc2Cl)NC(=O)CNC(=O)[C@@H](CC(=O)O)NC(=O)[C@H](N)CSSC[C@H](C(N)=O)NC1=O	4.72	–
NC(=O)C[C@@H]1NC(=O)[C@@H]2C[C@@H](O)CN2C(=O)CNC(=O)[C@@H]2C=CCN2C(=O)CNC(=O)[C@@H](CC(=O)O)NC(=O)[C@H](N)CSSC[C@H](C(N)=O)NC1=O	4.82	–
CC(C)CN[C@@H]1CSSC[C@H](C(N)=O)NC(=O)[C@H](CC(N)=O)NC(=O)[C@@H]2C[C@@H](O)CN2C(=O)CNC(=O)[C@H](Cc2ccc(O)c([N+](=O)[O-])c2)NC(=O)CNC(=O)[C@@H](CC(=O)O)NC1=O	< 4.60	–
CN(C)c1ccc(CN[C@@H]2CSSC[C@H](C(N)=O)NC(=O)[C@H](CC(N)=O)NC(=O)[C@@H]3C[C@@H](O)CN3C(=O)CNC(=O)[C@H](Cc3ccc(O)c([N+](=O)[O-])c3)NC(=O)CNC(=O)[C@@H](CC(=O)O)NC2=O)cc1	< 4.60	–
COC(=O)c1ccc(NC(=O)N[C@@H]2CSSC[C@H](C(N)=O)NC(=O)[C@H](CC(N)=O)NC(=O)[C@@H]3C[C@@H](O)CN3C(=O)CNC(=O)[C@H](Cc3ccc(O)c([N+](=O)[O-])c3)NC(=O)CNC(=O)[C@@H](CC(=O)O)NC2=O)cc1	< 4.60	–
CCCCNC(=O)N[C@@H]1CSSC[C@H](C(N)=O)NC(=O)[C@H](CC(N)=O)NC(=O)[C@@H]2C[C@@H](O)CN2C(=O)CNC(=O)[C@H](Cc2ccc(O)c([N+](=O)[O-])c2)NC(=O)CNC(=O)[C@@H](CC(=O)O)NC1=O	< 4.60	–
NC(=O)C[C@@H]1NC(=O)[C@@H]2C[C@@H](O)CN2C(=O)CNC(=O)[C@H](Cc2ccc(O)c(Cl)c2)NC(=O)CNC(=O)[C@@H](CC(=O)O)NC(=O)[C@H](N)CSSC[C@H](C(N)=O)NC1=O	4.70	–
NC(=O)C[C@@H]1NC(=O)[C@@H]2C[C@@H](O)CN2C(=O)CNC(=O)[C@@H]2CCCN2C(=O)CNC(=O)[C@@H](CC(=O)O)NC(=O)[C@H](N)CSSC[C@H](C(N)=O)NC1=O	4.77	–
NC(=O)C[C@@H]1NC(=O)[C@@H]2C[C@@H](O)CN2C(=O)CNC(=O)[C@H](c2cccc(C(F)(F)F)c2)NC(=O)CNC(=O)[C@@H](CC(=O)O)NC(=O)[C@H](N)CSSC[C@H](C(N)=O)NC1=O	4.92	–
NC(=O)C[C@@H]1NC(=O)[C@@H]2C[C@@H](O)CN2C(=O)CNC(=O)[C@H](Cc2ccc(O)c([N+](=O)[O-])c2)NC(=O)CNC(=O)[C@@H](CC(=O)O)NC(=O)[C@H](NC(=O)Nc2ccc(C(F)(F)F)cc2)CSSC[C@H](C(N)=O)NC1=O	< 4.60	–
NC(=O)[C@H]1CSSC[C@@H](N)C(=O)N[C@H](CC(=O)O)C(=O)NCC(=O)N[C@@H](Cc2ccc(O)c([N+](=O)[O-])c2)C(=O)NCC(=O)N2C[C@H](O)C[C@H]2C(=O)N[C@@H](CC(=O)O)C(=O)N1	4.77	–
NC(=O)C[C@@H]1NC(=O)[C@@H]2C[C@@H](O)CN2C(=O)CNC(=O)[C@H](Cc2cc(Br)c(O)c(Br)c2)NC(=O)CNC(=O)[C@@H](CC(=O)O)NC(=O)[C@H](N)CSSC[C@H](C(N)=O)NC1=O	< 4.60	–
